{"source": "patent EP0934933A1", "about": "“Phthalazinones” (Byk Gulden Lomberg Chemische Fabrik GmbH, priority 1998, dated 1999)"}
{"test_system": "PDE4", "assay": "Inhibition of PDE 4 activity (method of Bauer and Schwabe, adapted to microtitre plates)", "assay_type": "biochemical", "conditions": "measured as -logIC50 (mol/l)"}
{"compound": "COc1ccc(-c2nn(CC(=O)c3ccccc3)c(=O)c3ccccc23)cc1OC(F)F", "note": "[Compound 5, 4-(3-Difluoromethoxy-4-methoxyphenyl)-2-(2-phenyl-2-oxoethyl)-2H-phthalazin-1-one]", "-logIC50": 7.14}
{"compound": "CCOc1ccc(-c2nn(CC(=O)c3ccccc3)c(=O)c3ccccc23)cc1OCC", "note": "[Compound 2, 2-(2-Phenyl-2-oxoethyl)-4-(3,4-diethoxyphenyl)-2H-phthalazin-1-one]", "-logIC50": 7.01}
{"compound": "COc1ccc(OC)c(C(=O)Cn2nc(-c3ccc(OC)c(OC)c3)c3ccccc3c2=O)c1", "note": "[Compound 10, 4-(3,4-Dimethoxyphenyl)-2-[2-(2,5-dimethoxyphenyl)-2-oxoethyl]-2H-phthalazin-1-one]", "-logIC50": 6.99}
{"compound": "COc1ccc(-c2nn(CC(=O)c3ccccc3OC)c(=O)c3ccccc23)cc1OC", "note": "[Compound 7, 4-(3,4-Dimethoxyphenyl)-2-[2-(2-methoxyphenyl)-2-oxoethyl]-2H-phthalazin-1-one]", "-logIC50": 7.52}
{"compound": "COc1ccc(-c2nn(CC(=O)c3cc(Cl)c(N)c(Cl)c3)c(=O)c3ccccc23)cc1OC", "note": "[Compound 12, 4-(3,4-Dimethoxyphenyl)-2-[2-(4-amino-3,5-dichlorophenyl)-2-oxoethyl]-2H-phthalazin-1-one]", "-logIC50": 6.85}
{"compound": "CCOc1cc(-c2nn(CC(=O)c3ccccc3)c(=O)c3ccccc23)ccc1OC", "note": "[Compound 3, 4-(3-Ethoxy-4-methoxyphenyl)-2-(2-phenyl-2-oxoethyl)-2H-phthalazin-1-one]", "-logIC50": 7.28}
{"compound": "COc1ccc(-c2nn(CC(=O)c3ccccc3)c(=O)c3ccccc23)cc1OC1CCCC1", "note": "[Compound 4, 4-(3-Cyclopentyloxy-4-methoxyphenyl)-2-(2-phenyl-2-oxoethyl)-2H-phthalazin-1-one]", "-logIC50": 7.09}
